Experimental data published in US9944602B2, “Piperidinone herbicides” (E. I. DU PONT DE NEMOURS AND COMPANY, priority 2014, dated 2018).

Experiments:
Type in all cases: in vivo
[1] = test system: ryegrass, Italian (Italian ryegrass, Lolium multiflorum); assay: Test A preemergence ryegrass, Italian; conditions: 0 to 100 scale, 0 no effect, 100 complete control
Summary of the method: (§1)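 Greenhouse pot test: chemicals formulated with surfactant in non-phytotoxic solvent, sprayed on soil at seeding (pre) or on 1–2 leaf seedlings of 2–10 cm (post). Rating ~10 d later, visual, 0 = no effect to 100 = complete control, relative to untreated controls.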

[2] = test system: blackgrass (Alopecurus myosuroides); assay: Test A postemergence blackgrass; conditions: 0 to 100 scale, 0 is no effect, 100 is complete control
Summary of the method: as §1

[3] = test system: ryegrass, Italian (Italian ryegrass, Lolium multiflorum); assay: Test A postemergence ryegrass, Italian; conditions: 0 to 100 scale, 0 is no effect, 100 is complete control
Summary of the method: as §1

[4] = test system: wheat (Triticum aestivum); assay: Test A postemergence wheat; conditions: 0 to 100 scale, 0 is no effect, 100 is complete control
Summary of the method: as §1

[5] = test system: galium (catchweed bedstraw, Galium aparine); assay: Test A postemergence galium; conditions: 0 to 100 scale, 0 is no effect, 100 is complete control
Summary of the method: as §1

[6] = test system: foxtail, giant (giant foxtail, Setaria faberii); assay: Test A preemergence foxtail, giant; conditions: 0 to 100 scale, 0 no effect, 100 complete control
Summary of the method: as §1

[7] = test system: kochia (Kochia scoparia); assay: Test A preemergence kochia; conditions: 0 to 100 scale, 0 no effect, 100 complete control
Summary of the method: as §1

[8] = test system: barnyardgrass (Echinochloa crus-galli); assay: Test A preemergence barnyardgrass; conditions: 0 to 100 scale, 0 no effect, 100 complete control
Summary of the method: as §1

[9] = test system: sedge, umbrella (small-flower umbrella sedge, Cyperus difformis); assay: Test B flooded paddy test sedge, umbrella; conditions: Table B, Flood, 250 g ai/ha, scale 0 to 100
Summary of the method: (§2)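 Once seedlings reached two leaves, pots were flooded 3 cm deep and treated via the paddy water, which remained at that level. Evaluation was visual, against controls, after 13 to 15 d under greenhouse conditions.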

[10] = test system: ragweed (common ragweed, Ambrosia elatior); assay: Test A postemergence ragweed; conditions: 0 to 100 scale, 0 is no effect, 100 is complete control
Summary of the method: as §1

[11] = test system: pigweed (Amaranthus retroflexus); assay: Test A preemergence pigweed; conditions: 0 to 100 scale, 0 no effect, 100 complete control
Summary of the method: as §1

[12] = test system: rice (Oryza sativa); assay: Test B flooded paddy test rice; conditions: Table B, Flood, 250 g ai/ha, scale 0 to 100
Summary of the method: as §2

[13] = test system: ragweed (common ragweed, Ambrosia elatior); assay: Test A preemergence ragweed; conditions: 0 to 100 scale, 0 no effect, 100 complete control
Summary of the method: as §1

[14] = test system: barnyardgrass (Echinochloa crus-galli); assay: Test B flooded paddy test barnyardgrass; conditions: Table B, Flood, 250 g ai/ha, scale 0 to 100
Summary of the method: as §2

[15] = test system: pigweed (Amaranthus retroflexus); assay: Test A postemergence pigweed; conditions: 0 to 100 scale, 0 is no effect, 100 is complete control
Summary of the method: as §1

[16] = test system: ducksalad (Heteranthera limosa); assay: Test B flooded paddy test ducksalad; conditions: Table B, Flood, 250 g ai/ha, scale 0 to 100
Summary of the method: as §2

[17] = test system: kochia (Kochia scoparia); assay: Test A postemergence kochia; conditions: 0 to 100 scale, 0 is no effect, 100 is complete control
Summary of the method: as §1

[18] = test system: barnyardgrass (Echinochloa crus-galli); assay: Test A postemergence barnyardgrass; conditions: 0 to 100 scale, 0 is no effect, 100 is complete control
Summary of the method: as §1

[19] = test system: foxtail, giant (giant foxtail, Setaria faberii); assay: Test A postemergence foxtail, giant; conditions: 0 to 100 scale, 0 is no effect, 100 is complete control
Summary of the method: as §1

[20] = test system: corn (Zea mays); assay: Test A postemergence corn; conditions: 0 to 100 scale, 0 is no effect, 100 is complete control
Summary of the method: as §1

O=C1NCCC(c2cccc(OC(F)(F)F)c2)C1C(=O)Nc1ccccc1F (racemic) [Compound 37]
Ryegrass, Italian plant response rating ([1]; 125 g ai/ha): 0
Ryegrass, Italian plant response rating ([1]; 500 g ai/ha): 0
Plant response rating, Blackgrass ([2]; 125 g ai/ha): 0
Plant response rating, Blackgrass ([2]; 500 g ai/ha): 0
Plant response rating, Ryegrass, Italian ([3]; 125 g ai/ha): 0
Plant response rating, Ryegrass, Italian ([3]; 500 g ai/ha): 20
Plant response rating, Wheat ([4]; 125 g ai/ha): 0
Plant response rating, Wheat ([4]; 500 g ai/ha): 0
Plant response rating, Galium ([5]; 125 g ai/ha): 0
Plant response rating, Galium ([5]; 500 g ai/ha): 0
Foxtail, Giant plant response rating ([6]; 125 g ai/ha): 70
Foxtail, Giant plant response rating ([6]; 500 g ai/ha): 90
Kochia plant response rating ([7]; 125 g ai/ha): 0
Kochia plant response rating ([7]; 500 g ai/ha): 0
Barnyardgrass plant response rating ([8]; 125 g ai/ha): 40
Barnyardgrass plant response rating ([8]; 500 g ai/ha): 70
Plant response rating [9]: 0
Plant response rating, Ragweed ([10]; 125 g ai/ha): 0
Plant response rating, Ragweed ([10]; 500 g ai/ha): 0
Pigweed plant response rating ([11]; 125 g ai/ha): 0
Pigweed plant response rating ([11]; 500 g ai/ha): 0
Plant response rating [12]: 0
Ragweed plant response rating ([13]; 125 g ai/ha): 0
Ragweed plant response rating ([13]; 500 g ai/ha): 0
Plant response rating [14]: 35
Plant response rating, Pigweed ([15]; 125 g ai/ha): 0
Plant response rating, Pigweed ([15]; 500 g ai/ha): 0
Plant response rating [16]: 90
Plant response rating, Kochia ([17]; 125 g ai/ha): 0
Plant response rating, Kochia ([17]; 500 g ai/ha): 0
Plant response rating, Barnyardgrass ([18]; 125 g ai/ha): 60
Plant response rating, Barnyardgrass ([18]; 500 g ai/ha): 80
Plant response rating, Foxtail, Giant ([19]; 125 g ai/ha): 20
Plant response rating, Foxtail, Giant ([19]; 500 g ai/ha): 70
Plant response rating, Corn ([20]; 125 g ai/ha): 0
Plant response rating, Corn ([20]; 500 g ai/ha): 0

O=C1NCCC(c2cccc(OC(F)(F)F)c2)C1C(=O)Nc1ccccc1C(F)(F)F (racemic) [Compound 38]
Ryegrass, Italian plant response rating ([1]; 125 g ai/ha): 0
Ryegrass, Italian plant response rating ([1]; 500 g ai/ha): 0
Plant response rating, Blackgrass ([2]; 125 g ai/ha): 0
Plant response rating, Blackgrass ([2]; 500 g ai/ha): 0
Plant response rating, Ryegrass, Italian ([3]; 125 g ai/ha): 0
Plant response rating, Ryegrass, Italian ([3]; 500 g ai/ha): 0
Plant response rating, Wheat ([4]; 125 g ai/ha): 0
Plant response rating, Wheat ([4]; 500 g ai/ha): 0
Plant response rating, Galium ([5]; 125 g ai/ha): 0
Plant response rating, Galium ([5]; 500 g ai/ha): 0
Foxtail, Giant plant response rating ([6]; 125 g ai/ha): 50
Foxtail, Giant plant response rating ([6]; 500 g ai/ha): 80
Kochia plant response rating ([7]; 125 g ai/ha): 0
Kochia plant response rating ([7]; 500 g ai/ha): 0
Barnyardgrass plant response rating ([8]; 125 g ai/ha): 30
Barnyardgrass plant response rating ([8]; 500 g ai/ha): 80
Plant response rating [9]: 0
Plant response rating, Ragweed ([10]; 125 g ai/ha): 0
Plant response rating, Ragweed ([10]; 500 g ai/ha): 0
Pigweed plant response rating ([11]; 125 g ai/ha): 0
Pigweed plant response rating ([11]; 500 g ai/ha): 0
Plant response rating [12]: 0
Ragweed plant response rating ([13]; 125 g ai/ha): 0
Ragweed plant response rating ([13]; 500 g ai/ha): 0
Plant response rating [14]: 35
Plant response rating, Pigweed ([15]; 125 g ai/ha): 0
Plant response rating, Pigweed ([15]; 500 g ai/ha): 0
Plant response rating [16]: 85
Plant response rating, Kochia ([17]; 125 g ai/ha): 0
Plant response rating, Kochia ([17]; 500 g ai/ha): 0
Plant response rating, Barnyardgrass ([18]; 125 g ai/ha): 50
Plant response rating, Barnyardgrass ([18]; 500 g ai/ha): 70
Plant response rating, Foxtail, Giant ([19]; 125 g ai/ha): 0
Plant response rating, Foxtail, Giant ([19]; 500 g ai/ha): 60
Plant response rating, Corn ([20]; 125 g ai/ha): 0
Plant response rating, Corn ([20]; 500 g ai/ha): 0
